Read-outs that look alike come from different tables or passages of the source.
Tests used:
TNF = experiment: TNF-producing activity; assay type: in vivo, ICR mice; conditions: 10 μg/mice i.v., serum at 90 minutes, Corynebacterium parvum-primed, L929 cytotoxicity assay
Protocol: TNF-producing activity was evaluated utilizing the following experimental system.
The first stimulating agent, 5% Corynebacterium parvum suspension (0.2 ml physiological saline solution), was intravenously administered to ICR mice (female, 6-7 week-aged). Nine days later, the second stimulating agent, the compound of the present invention, was intravenously administered to the same mice at 10 μg/mice. In 90 minutes, 0.5-1 ml of blood was taken from the retro orbital plexus. The obtained blood was allowed to clot at room temperature for five to six hours, and centrifuged at 7200×g for five minutes to separate the serum. The obtained serum was incubated at 56° C. for 30 minutes for inactivation before use in the following experiment.
TNF activity in the serum was measured via a cytotoxicity assay employing L929 cells. […] After 48 hours incubation at 37° C., the viable cells were fixed with methanol. These cells were then stained with 0.2% crystal violet, and the dye was extracted with 1% SDS (sodium dodecyl sulphate). Next, the absorbance at 550 nm was measured. Finally, the cytotoxicity ratio (%) was calculated according to the following formula, and the reciprocal of the dilution of the serum showing 50% cytotoxicity was determined for the TNF titer in the serum (U/ml).
[OD550 (medium alone) - OD550 (serum obtained by
administering compounds of the invention)] ×

neutrophils = experiment: O2^- production stimulating activity in neutrophils; assay type: cell-based, C3H/HeN mice; conditions: 10 μg/ml, 37° C., 60 minutes, FMLP 0.1 μM; for activation at 10 µg/mL: Mus musculus, Neutrophil, 1 h, read-out: Stimulation (%), O2^- production stimulating activity
Protocol: O2^- - production stimulating activity in neutrophils was evaluated utilizing the following experimental system [see J. Exp. Med., 160, 1656-1671. (1984)]. To the peritoneal cavity of C3H/HeN mice (male, 8-9 weeks old), physiological saline containing 0.2% (w/v) casein was administered. Three hours later, peritoneal exudate cells (90% or more of which are neutrophils) were collected. These cells (1.7×10^6 cells/ml/tube) were incubated in the presence of the compound (10 μg/ml) according to the present invention at 37° C. for 60 minutes. After addition of 80 μM of cytochrome C and 0.1 μM of formyl-methionyl-leucylphenylalanine (FMLP), the mixture was incubated in the presence of or in the absence of superoxide dismutase (SOD) at 37° C. for 10 minutes. Then, SOD-inhibitable cytochrome C reduction was estimated from the difference between the absorbances at 550 nm and 541.7 nm, and from the molar absorption coefficient (16.5×10^3).O2^- production-stimulating activity in terms of Stimulation % was calculated according to the following formula: [formula]

spleen cells = experiment: Mitogen activity (3H-thymidine incorporation in spleen cells); assay type: cell-based, C3H/HeN mice; conditions: 48 hours culture, given concentration
Protocol: The mitogen activity of the compounds according to the present invention was evaluated by utilizing the following experimental system [see Eur. J. Immunol., 14, 109-114. (1984)].
The spleens of C3H/HeN mice (males, 6-10-weeks old) were isolated in an aseptic manner. The spleen tissue was loosened in Dulbecco's modified Eagle medium (DMEM) and then subjected to a stainless mesh in order to filter the spleen cells. Next, erythrocytes contained in the collected cells were hemolyzed, and the obtained cells were suspended in RPMI 1640 medium containing 5% FBS for subsequent use.
Evaluation of mitogenic activity of the compounds according to the present invention was conducted by measuring the amount of ^3 H-thymidine incorporated into the cells during culturing of the cells which were treated with the compounds according to the present invention. First, the spleen cells were transferred to a 96-well plate at 5×10^5 cells/well (100 μl). To each well, the compound according to the present invention at a given concentration (100 μl) was added, and the obtained solution in each well was cultured under 5% CO2 at 37° C. for 48 hours. After that, ^3 H-thymidine was added at 1 μCi/well (50 μl), followed by culturing for four hours. The obtained cells were washed with phosphate buffered saline (PBS), and the amount of ^3 H-thymidine incorporated into the cells (the amount of radioactivity) was determined using a liquid scintillation counter. The result was shown by calculating the following Stimulation Index: [formula]

[1] = tested on: colony stimulating factor (CSF); experiment: Colony stimulating factor (CSF)-inducing activity; assay type: in vivo, C57BL mice; conditions: 5 μg caudal vein, serum after six hours, colonies after seven days
Protocol: By utilizing the following experimental protocol, in vivo colony stimulating factor (CSF) inducing activity of the compounds according to the present invention was evaluated [see Immunology, 21, 427-436. (1971)].
5 μg of the present compounds according to the present invention were administered to the caudal vein of C57BL mice (male, 8-10-weeks old). After six hours, the blood was sampled from the plexus venous orbitalis of said mice. This blood was allowed to stand at 4° C. for two hours for sufficient coagulation, and then centrifuged at 1500×g. The resultant supernatant solution was collected for use as a CSF-containing serum sample.
Separately, from the femora of mice which were the same series as the mice used for sampling the serum, the bone marrow cells were sampled. Specifically, both ends of the femora isolated in an aseptic manner were cut, and an injection needle was inserted into one end to aspirate the bone marrow cells into a culture solution (DMEM). The obtained cell suspension was sufficiently stirred, washed with the culture solution several times, and suspended in the culture solution again.
Next, the cell culture prepared as described was adjusted to a final concentration of 10^5 cells/ml by utilizing a medium (DMEM) containing 0.3% agar, 25% horse serum, and 50 μM 2-mercaptoethanol. To this solution, 0.1 ml of said serum sample which had been diluted to 1/3 with said DMEM medium was added, and the obtained solution was transferred to a culture plate of 35 mm diameter. Then, the resultant culture solution was cultured under 7% CO2 at 37° C. for seven days to form colonies. Colonies as containing at least 20 unseparated cells were counted, and the numbers thus obtained were taken as indicating the CSF inducing activity of the compounds according to the present invention.

[2] = Lethal toxicity in galactosamine-sensitized mice; assay type: in vivo, C57BL mice; conditions: galactosamine-sensitized mice; intravenous; D-galactosamine/HCl 10 mg/mouse intraperitoneally; observed to seventh day; read-out: LD50 (galactosamine load)
Protocol: (§1) Lethal toxicity in galactosamine-sensitized mice was evaluated by utilizing the following experimental system [see J. Biochem., 98, 395-406. (1985)].
(§2) To C57BL mice (male, 7-weeks old), 10 mg/mouse of D-galactosamine/HCl was intraperitoneally administered. Immediately after that, the compound of this invention was intravenously administered. After these administrations, the general condition of the mice were observed every one hour for seven hours, and every day from the following day to the seventh day.

[3] = tested on: galactosamine-sensitized mice; experiment: Lethal toxicity in galactosamine-sensitized mice; assay type: in vivo, C57BL mice; conditions: intravenous; D-galactosamine/HCl 10 mg/mouse intraperitoneally; observed to seventh day; 10080 min
Protocol: as §1, §2

| SMILES | The Amount of TNF in the Serum (TNF; Experiment 2) [U/ml] | Stimulation (%), O2^- production stimulating activity (neutrophils; Experiment 2) [%] | activation at 10 µg/mL (neutrophils; Experiment 1) [%] | The Amount of TNF in the Serum (TNF; Experiment 1) [U/ml] | Stimulation Index (spleen cells; Experiment 1) | Stimulation Index (spleen cells; Experiment 2) | The Number of Colony Formed/The number of Bone Marrow Cells (10^5) ([1]; Experiment 1) | The Number of Colony Formed/The number of Bone Marrow Cells (10^5) ([1]; Experiment 2) | LD50 at 168 h [2] [mg/kg] | activation at 10 µg/mL (neutrophils; Experiment 2) [%] | LD50 (galactosamine load) [3] [mg/kg] |
| --- | --- | --- | --- | --- | --- | --- | --- | --- | --- | --- | --- |
| CCCCCCCCCCCCCCC(OC(=O)CCCCCCCCCCC)C(=O)O[C@H]1[C@@H]2OP(=O)(O)OC[C@H]2OC[C@@H]1NC(=O)C[C@H](O)CCCCCCCCC (stereo partly drawn) [Example 2, 1,5-Anhydro-2-deoxy-3-O-{(2RS)-2-dodecanoyloxyhexadecanoyl}-2-{(3R)-3-hydroxydodecanamido}-4,6-O-hydroxyphosphoryl-D-glucitol] | 102000 | – | – | – | – | – | – | – | – | – | – |
| CCCCCCCCCCCCCC(=O)O[C@H](CCCCCCCCCCC)CC(=O)O[C@H]1[C@H](OP(=O)(O)O)[C@@H](CO)OC(O)[C@@H]1NC(=O)C[C@H](O)CCCCCCCCCCC (stereo partly drawn) [Control, 2-deoxy-2[(3R)-3-hydroxytetradecanamide]-4-O-phosphono-3-O-[(3R)-3-tetradecanoyloxytetradecanoyl]-D-glucopyranose] | 80000 | 60 | 60 | 158000 | 15.8 | 8.4 | 89 Colony Formed/10^5 Bone Marrow | 53 Colony Formed/10^5 Bone Marrow | 0.003 | – | – |
| CCCCCCCCCCCCCC(=O)O[C@H](CCCCCCCCCCCC)C(=O)O[C@H]1[C@@H]2OP(=O)(O)OC[C@H]2OC[C@@H]1NC(=O)C[C@H](O)CCCCCCCCCCC [Example 1, 1,5-Anhydro-2-deoxy-4,6-O-hydroxyphosphoryl-2-{(3R)-3-hydroxytetradecanamido}-3-O-{(2R)-2-tetradecanoyloxytetradecanoyl}-D-glucitol] | – | – | 55 | 133000 | 32.1 | – | 153 Colony Formed/10^5 Bone Marrow | – | 0.0313 | – | – |
| CCCCCCCCCCCCCCC(CCCCCCCCCCCC)C(=O)O[C@H]1[C@@H]2OP(=O)(O)OC[C@H]2OC[C@@H]1NC(=O)C[C@H](O)CCCCCCCCCCC (stereo partly drawn) [Example 4, 1,5-Anhydro-2-deoxy-3-O-{(2RS)-2-dodecylhexadecanoyl}-4,6-O-hydroxyphosphoryl-2-{(3R)-3-hydroxytetradecanamido}-D-glucitol] | – | – | – | – | – | 20.7 | – | 66 Colony Formed/10^5 Bone Marrow | 0.0711 | 55 | – |
| CCCCCCCCCCCCCC(=O)O[C@H](CCCCCCCCCCC)CC(=O)O[C@@H]1[C@@H](NC(=O)C[C@@H](CCCCCCCCCCC)OC(=O)CCCCCCCCCCC)[C@H](OC[C@H]2O[C@H](OP(=O)(O)O)[C@H](NC(=O)C[C@H](O)CCCCCCCCCCC)[C@@H](OC(=O)C[C@H](O)CCCCCCCCCCC)[C@@H]2O)O[C@H](CO)[C@H]1OP(=O)(O)O [Lipid A] | – | – | – | – | – | – | – | – | – | – | 0.0003 |

Reference: patent publication US5278300A, “4,6-o-hydroxyphosphoryl-glucosamine derivatives” (priority 1990, dated 1994)
